Article PMC9124818 (Pharmacology Research & Perspectives, 2022)
Like-named read-outs stand apart in the source and are kept apart here.

Experiments:
CYP1A2 = target: T1, CYP1A2 (Homo sapiens, UniProt P05177); test: Direct CYP450 inhibition in human liver microsomes (phenacetin O-dealkylation)
T1 sequence (P05177 1-516): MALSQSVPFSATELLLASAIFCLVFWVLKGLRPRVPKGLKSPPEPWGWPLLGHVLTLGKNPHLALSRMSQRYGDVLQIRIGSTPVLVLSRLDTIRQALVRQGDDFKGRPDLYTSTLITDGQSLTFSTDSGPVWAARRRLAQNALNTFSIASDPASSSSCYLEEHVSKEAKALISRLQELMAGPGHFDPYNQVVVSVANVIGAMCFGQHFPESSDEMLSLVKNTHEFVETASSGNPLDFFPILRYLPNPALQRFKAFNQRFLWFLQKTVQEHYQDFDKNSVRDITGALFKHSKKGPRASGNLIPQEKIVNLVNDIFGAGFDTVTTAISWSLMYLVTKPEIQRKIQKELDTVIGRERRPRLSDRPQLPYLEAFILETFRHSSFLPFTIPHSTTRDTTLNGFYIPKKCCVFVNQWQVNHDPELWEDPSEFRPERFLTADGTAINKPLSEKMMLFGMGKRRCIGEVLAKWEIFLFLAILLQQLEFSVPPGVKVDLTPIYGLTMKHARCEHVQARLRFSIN
Source text: (§3) A mixed‐gender pool of 200 individual human liver microsomal samples was used.
(§4) This LIMS utilizes the Levenberg-Marquardt algorithm to perform nonlinear regression fitting of the data to the following 4-parameter sigmoidal-logistic IC50 equation:
(§5) As percent of control values are utilized, the Min is set to 0 and the Max is set to 100 (or other values, as appropriate). […] Therefore, when an IC50 value falls outside the concentration range studied, the IC50 values are reported to be greater than the highest concentrations of test article evaluated.

OATP1B3 = target: T2, OATP1B3 (Homo sapiens, UniProt Q9NPD5); test: Transporter inhibition, uptake of [3H]-estradiol-17β-glucuronide in HEK293 cells; assay type: in vitro ADME
T2 construct: host or cells: HEK293
T2 sequence (Q9NPD5 1-702): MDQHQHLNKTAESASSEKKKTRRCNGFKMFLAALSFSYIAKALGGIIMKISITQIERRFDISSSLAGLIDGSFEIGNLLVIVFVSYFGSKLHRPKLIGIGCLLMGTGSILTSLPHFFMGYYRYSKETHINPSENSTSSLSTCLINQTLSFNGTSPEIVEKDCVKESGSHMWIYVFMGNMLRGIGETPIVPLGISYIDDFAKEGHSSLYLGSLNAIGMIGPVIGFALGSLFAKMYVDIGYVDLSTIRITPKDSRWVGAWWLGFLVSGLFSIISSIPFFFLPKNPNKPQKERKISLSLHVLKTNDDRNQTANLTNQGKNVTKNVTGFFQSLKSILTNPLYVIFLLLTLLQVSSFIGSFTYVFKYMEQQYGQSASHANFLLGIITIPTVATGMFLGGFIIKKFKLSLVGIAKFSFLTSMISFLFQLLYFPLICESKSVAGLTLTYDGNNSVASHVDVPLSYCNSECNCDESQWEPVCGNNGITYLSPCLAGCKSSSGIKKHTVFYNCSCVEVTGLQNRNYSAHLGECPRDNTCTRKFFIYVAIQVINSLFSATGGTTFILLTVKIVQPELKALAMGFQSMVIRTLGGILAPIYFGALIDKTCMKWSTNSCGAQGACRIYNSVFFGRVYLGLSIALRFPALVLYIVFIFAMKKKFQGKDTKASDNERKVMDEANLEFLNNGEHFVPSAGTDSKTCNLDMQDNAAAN
Procedure: (§1) The test compound (FFA or nFFA) or the positive control substrate ([…], respectively) was added to the donor chamber. […] Cells were then washed, lysed with scintillation cocktail, and analyzed for the probe substrate with a MicroBeta scintillation counter (PerkinElmer, Hopkinton, MA). Transcellular transporter assay conditions are described in Supplemental Table 1. Calculation of IC50 values was based on bidirectional permeability of probe substrate with and without the inhibitor in MDCKII cells expressing BCRP and in Caco‐2 cells expressing P‐gp, and transporter‐dependent uptake of probe substrate in HEK293 cells expressing all other transporters (Supplemental Table 1).
(§2) The transporter-specific uptake of the probe substrate in cells was determined by subtracting the accumulation in the control cells from the accumulation in the transporter-expressing cells.

OAT1 = target: T3, OAT1 (Homo sapiens, UniProt Q4U2R8); test: Transporter inhibition, uptake of [3H]-p-aminohippurate in HEK293 cells; assay type: in vitro ADME
T3 construct: host or cells: HEK293
T3 sequence (Q4U2R8 1-563): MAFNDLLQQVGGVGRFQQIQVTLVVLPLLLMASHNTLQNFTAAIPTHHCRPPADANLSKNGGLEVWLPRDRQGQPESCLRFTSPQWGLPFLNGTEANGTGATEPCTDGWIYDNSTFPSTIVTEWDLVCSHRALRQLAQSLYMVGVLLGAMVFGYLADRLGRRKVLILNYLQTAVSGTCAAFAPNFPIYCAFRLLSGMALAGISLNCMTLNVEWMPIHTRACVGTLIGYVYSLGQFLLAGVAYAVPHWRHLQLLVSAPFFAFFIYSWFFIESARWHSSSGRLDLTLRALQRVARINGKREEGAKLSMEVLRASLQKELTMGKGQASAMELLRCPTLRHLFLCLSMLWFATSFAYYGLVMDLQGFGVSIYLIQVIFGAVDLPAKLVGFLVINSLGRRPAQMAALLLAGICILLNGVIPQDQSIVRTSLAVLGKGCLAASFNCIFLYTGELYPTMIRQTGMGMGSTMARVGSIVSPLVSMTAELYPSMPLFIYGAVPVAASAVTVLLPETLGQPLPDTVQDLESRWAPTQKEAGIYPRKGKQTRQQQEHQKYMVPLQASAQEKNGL
Procedure: as §1, §2

CYP2D6 = CYP2D6 (Homo sapiens, UniProt P10635); test: Direct CYP450 inhibition in human liver microsomes (dextromethorphan O-demethylation); conditions: for Inhibition (%): direct inhibition, FFA up to 60 µM, nFFA up to 100 µM; for Ah (guidance term): mechanistic static model, Supplemental Table 2; for Basic model: R1: R1 = 1 + (Imax,u/Ki,u)
CYP2D6, sequence (P10635 whole entry): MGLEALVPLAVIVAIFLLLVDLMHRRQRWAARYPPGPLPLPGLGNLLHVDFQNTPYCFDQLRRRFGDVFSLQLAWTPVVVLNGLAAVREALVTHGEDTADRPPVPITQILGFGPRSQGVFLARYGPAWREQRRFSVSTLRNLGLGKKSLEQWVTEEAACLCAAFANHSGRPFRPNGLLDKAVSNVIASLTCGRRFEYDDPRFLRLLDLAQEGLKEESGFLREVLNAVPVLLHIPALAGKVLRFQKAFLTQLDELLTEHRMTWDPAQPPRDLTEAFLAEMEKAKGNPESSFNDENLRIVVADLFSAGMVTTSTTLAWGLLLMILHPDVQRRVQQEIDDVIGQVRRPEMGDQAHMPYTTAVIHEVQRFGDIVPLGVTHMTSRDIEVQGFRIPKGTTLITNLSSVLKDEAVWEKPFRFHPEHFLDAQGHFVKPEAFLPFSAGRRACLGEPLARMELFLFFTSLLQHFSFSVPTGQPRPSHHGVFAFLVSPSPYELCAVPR
Procedure: Microsomes from non‐transplantable human livers were prepared and characterized as outlined previously.[25], [26] A mixed‐gender pool of 200 individual human liver microsomal samples was used. Substrate concentrations and incubation conditions for determination of the kinetic constant (S50 or Km) used to select marker substrate concentrations were previously determined.[24]
Summary data are expressed as percent of control and mean ± standard deviation (SD) or standard error of the mean (SEM), as appropriate. Individual values from inhibition studies were processed with the laboratory information management system (LIMS) Galileo v3.3 (Thermo Fisher Scientific), which was used to calculate IC50 values from a four‐parameter logistic regression applied to percent inhibition versus concentration values. […] Based on FDA guidance for metabolism‐ and transporter‐mediated DDI studies,[15] basic kinetic models for transporter inhibition, CYP450 inhibition, and CYP450 induction were employed to calculate R, R1, and R3 values, respectively, and were compared to the respective predetermined threshold values listed in the guidance document.[15] […] Plasma protein binding data were used to estimate input parameters for fraction unbound to plasma proteins in the mechanistic static model (Supplemental Table 2). The fraction absorbed was assumed to be 100%, yielding the highest possible portal concentrations. […] Assays were performed in duplicate or triplicate according to previously published reports. Statistical analysis for replicates was not possible with n = 2 sample sizes.
as §4, §5

P‐gp = target: T4, P‐gp (Homo sapiens, UniProt P08183); test: Transporter inhibition, bidirectional permeability of digoxin in Caco-2 cells; assay type: in vitro ADME
T4 construct: host or cells: Caco-2
T4 sequence (P08183 whole entry): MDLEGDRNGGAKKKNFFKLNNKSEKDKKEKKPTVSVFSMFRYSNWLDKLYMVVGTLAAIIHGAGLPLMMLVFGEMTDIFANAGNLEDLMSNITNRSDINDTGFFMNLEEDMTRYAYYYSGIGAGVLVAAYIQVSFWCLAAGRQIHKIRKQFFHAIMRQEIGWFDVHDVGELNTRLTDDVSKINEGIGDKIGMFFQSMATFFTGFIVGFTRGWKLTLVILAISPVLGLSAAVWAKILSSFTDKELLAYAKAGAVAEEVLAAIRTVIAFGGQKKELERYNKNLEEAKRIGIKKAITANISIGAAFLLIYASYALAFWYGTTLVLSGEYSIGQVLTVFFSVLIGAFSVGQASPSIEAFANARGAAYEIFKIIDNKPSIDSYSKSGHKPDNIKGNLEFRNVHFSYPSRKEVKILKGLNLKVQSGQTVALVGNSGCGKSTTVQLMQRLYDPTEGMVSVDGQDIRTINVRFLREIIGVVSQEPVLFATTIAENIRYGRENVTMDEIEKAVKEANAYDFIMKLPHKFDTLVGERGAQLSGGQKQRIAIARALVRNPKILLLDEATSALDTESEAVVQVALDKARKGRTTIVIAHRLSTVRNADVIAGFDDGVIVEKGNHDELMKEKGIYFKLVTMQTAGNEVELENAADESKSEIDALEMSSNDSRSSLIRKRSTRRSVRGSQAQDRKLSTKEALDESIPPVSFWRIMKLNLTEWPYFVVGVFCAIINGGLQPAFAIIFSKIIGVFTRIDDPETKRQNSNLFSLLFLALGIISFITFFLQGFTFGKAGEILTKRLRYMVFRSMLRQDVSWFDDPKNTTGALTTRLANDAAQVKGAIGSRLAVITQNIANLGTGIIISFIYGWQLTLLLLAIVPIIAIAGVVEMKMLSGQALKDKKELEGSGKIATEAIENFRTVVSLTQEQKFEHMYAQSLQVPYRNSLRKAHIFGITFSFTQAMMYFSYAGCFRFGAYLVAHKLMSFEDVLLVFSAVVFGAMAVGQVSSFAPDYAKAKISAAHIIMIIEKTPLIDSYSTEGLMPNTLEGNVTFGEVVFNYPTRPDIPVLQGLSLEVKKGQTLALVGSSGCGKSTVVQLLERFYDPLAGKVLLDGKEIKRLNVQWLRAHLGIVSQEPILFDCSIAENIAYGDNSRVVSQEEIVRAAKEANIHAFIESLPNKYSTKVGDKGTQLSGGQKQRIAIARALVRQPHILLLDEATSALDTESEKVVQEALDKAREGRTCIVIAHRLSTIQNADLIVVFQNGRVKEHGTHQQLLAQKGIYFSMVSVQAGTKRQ
Procedure: as §1
The net flux for human epithelial colorectal adenocarcinoma cells (Caco-2; P-gp) and MDCKII-BCRP inhibition determination was calculated according to the equation: […]

CYP1A2 mRNA = test: CYP450 induction in cultured human hepatocytes, mRNA by qRT-PCR; assay type: cell-based; conditions: for Fold‐change method: Fold change: highest dose tested (40 µM fenfluramine, 50 µM norfenfluramine); for Fold‐change method: % of control: percent of positive control induction of mRNA
Procedure: Each PCR was performed in triplicate.

[1] = system: cultured human hepatocytes; test: Cytotoxicity: LDH release and microscopic evaluation; assay type: cell-based; conditions: for hepatocyte morphology: up to 40 μM FFA or 50 μM nFFA for 3 consecutive days; for LDH release: up to 40 μM FFA or 50 μM nFFA, all three hepatocyte cultures
Procedure: Data were processed with KC4 Signature software (version 3.4, Rev 21, BioTek Instruments, Inc.) and graphed with Microsoft Excel 2003 (Microsoft Corp.). Percent LDH release was calculated based on the following equations: […]

CYP2C9 = CYP2C9 (Homo sapiens, UniProt P11712); test: Direct CYP450 inhibition in human liver microsomes (diclofenac 4'-hydroxylation)
CYP2C9, sequence (P11712 whole entry): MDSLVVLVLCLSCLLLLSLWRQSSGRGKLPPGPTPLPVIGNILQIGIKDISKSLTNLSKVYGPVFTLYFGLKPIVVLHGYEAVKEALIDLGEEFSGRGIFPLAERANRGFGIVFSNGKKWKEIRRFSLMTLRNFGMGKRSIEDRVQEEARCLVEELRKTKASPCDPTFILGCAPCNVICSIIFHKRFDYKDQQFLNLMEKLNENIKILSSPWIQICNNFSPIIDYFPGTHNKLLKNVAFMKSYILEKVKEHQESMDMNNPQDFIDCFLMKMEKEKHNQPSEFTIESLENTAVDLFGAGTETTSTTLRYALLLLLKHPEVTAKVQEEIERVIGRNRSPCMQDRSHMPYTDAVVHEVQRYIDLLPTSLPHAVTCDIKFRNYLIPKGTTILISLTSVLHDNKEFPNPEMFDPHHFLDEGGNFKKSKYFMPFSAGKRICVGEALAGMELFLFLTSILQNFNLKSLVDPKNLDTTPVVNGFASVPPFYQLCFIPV
Source text: as §3, §4, §5

[2] = all three hepatocyte cultures, FFA up to 40 μM, nFFA 50 μM

SMILES: CCNC(C)Cc1cccc(C(F)(F)F)c1 (racemic) [FFA, (RS)‐ethyl(α‐methyl‐3‐trifluoromethylphenethyl)amine, reference compound]
- IC50 (CYP1A2): > 60 µM
- Basic model: Potential for clinical inhibition (CYP1A2; substrate phenacetin): No (Potential to inhibit if R1 ≥ 1.02)
- Static mechanistic model: Potential for clinical inhibition (CYP1A2; substrate phenacetin): No (Potential to inhibit if AUCR ≥ 1.25)
- IC50 (OATP1B3): > 300 µM
- IC50 (OAT1): > 30 µM
- IC50 (CYP2D6): 4.7 ± 0.2 µM
- Ki (CYP2D6): 2.17 µM
- Inhibition (%) (CYP2D6; substrate dextromethorphan): 90%
- Ah (guidance term) (CYP2D6): 0.867
- Basic model: Potential for clinical inhibition (CYP2D6; substrate dextromethorphan): Yes (Potential to inhibit if R1 ≥ 1.02)
- Static mechanistic model: Potential for clinical inhibition (CYP2D6; substrate dextromethorphan): No (Potential to inhibit if AUCR ≥ 1.25)
- Basic model: R1 (CYP2D6; substrate dextromethorphan): 1.07
- IC50 (P‐gp): > 100 µM
- % as effective as the positive control, omeprazole (CYP1A2 mRNA) (CYP1A2 mRNA; [2]): < 20%
- hepatocyte morphology [1]: No morphological changes
- LDH release [1]: ≤ 8.5 % positive control
- IC50 (CYP2C9): > 60 µM
- Inhibition (%) (CYP2C9; direct inhibition, substrate diclofenac, FFA up to 60 µM, nFFA up to 100 µM): 2.4%
- Basic model: Potential for clinical inhibition (CYP2C9; substrate diclofenac): No (Potential to inhibit if R1 ≥ 1.02)
- Static mechanistic model: Potential for clinical inhibition (CYP2C9; substrate diclofenac): No (Potential to inhibit if AUCR ≥ 1.25)
- Basic model: R1 (CYP2C9; substrate diclofenac, R1 = 1 + (Imax,u/Ki,u)): 1.01

SMILES: CC(N)Cc1cccc(C(F)(F)F)c1.Cl (centres unmarked) [nFFA, [1‐(3‐trifluoromethyl)phenyl]propan‐2‐amine hydrochloride]
- IC50 (CYP1A2; direct inhibition, human liver microsomes, substrate phenacetin): > 100 µM
- Basic model: Potential for clinical inhibition (CYP1A2; substrate phenacetin): No (Potential to inhibit if R1 ≥ 1.02)
- Static mechanistic model: Potential for clinical inhibition (CYP1A2; substrate phenacetin): No (Potential to inhibit if AUCR ≥ 1.25)
- IC50 (OATP1B3; HEK293, probe [3H]-estradiol-17β-glucuronide 50 nM, read-out: IC50): > 50 µM
- IC50 (OAT1; HEK293, probe [3H]-p-aminohippurate 1 μM, read-out: IC50): > 50 µM
- IC50 (CYP2D6; direct inhibition (no preincubation), human liver microsomes, substrate dextromethorphan): 16 ± 1 µM
- Inhibition (%) (CYP2D6; substrate dextromethorphan): 82%
- Ah (guidance term) (CYP2D6): 0.988
- Ki (CYP2D6; read-out: Ki, u, IC50 divided by 2, assumes [S] = Km, adjusted for estimated unbound fraction in microsomes): 7.86 µM
- Basic model: Potential for clinical inhibition (CYP2D6; substrate dextromethorphan): No (Potential to inhibit if R1 ≥ 1.02)
- Static mechanistic model: Potential for clinical inhibition (CYP2D6; substrate dextromethorphan): No (Potential to inhibit if AUCR ≥ 1.25)
- Basic model: R1 (CYP2D6; substrate dextromethorphan): 1.01
- IC50 (P‐gp; Caco-2, probe digoxin 10 µM, read-out: IC50): > 50 µM
- % as effective as the positive control, omeprazole (CYP1A2 mRNA) (CYP1A2 mRNA; [2]): < 20%
- fold change in CYP1A2 mRNA levels (CYP1A2 mRNA; [2]): < 2 fold
- Fold‐change method: Potential to induce (CYP1A2 mRNA; hepatocytes HC7‐8): No
- Fold‐change method: Fold change (CYP1A2 mRNA; hepatocytes HC7‐8): 1.74 fold
- Fold‐change method: % of control (CYP1A2 mRNA; hepatocytes HC7‐8): 2.35%
- Fold‐change method: Potential to induce (CYP1A2 mRNA; hepatocytes HC10‐8): No
- Fold‐change method: Fold change (CYP1A2 mRNA; hepatocytes HC10‐8): 1.92 fold
- Fold‐change method: % of control (CYP1A2 mRNA; hepatocytes HC10‐8): 1.79%
- Fold‐change method: Potential to induce (CYP1A2 mRNA; hepatocytes HC10‐10): No
- Fold‐change method: Fold change (CYP1A2 mRNA; hepatocytes HC10‐10): 1.86 fold
- Fold‐change method: % of control (CYP1A2 mRNA; hepatocytes HC10‐10): 1.96%
- hepatocyte morphology [1]: No morphological changes
- LDH release [1]: ≤ 13.8 % positive control
- IC50 (CYP2C9; direct inhibition, human liver microsomes, substrate diclofenac): > 100 µM
- Basic model: Potential for clinical inhibition (CYP2C9; substrate diclofenac): No (Potential to inhibit if R1 ≥ 1.02)
- Static mechanistic model: Potential for clinical inhibition (CYP2C9; substrate diclofenac): No (Potential to inhibit if AUCR ≥ 1.25)
